Counter-ions that a name gives are not always drawn.
Molecular target: CCR2 (Homo sapiens (Human), UniProt P41597)
Assay: MCP-1 Receptor Binding Assay in THP-1 Cells
Conditions: 0.5 nM 125I labeled MCP-1, 2 hours at 30° C., average of the two most similar values where more than one IC50, read-out: Inhibition of MCP-1 Binding IC50 CCR2 Binding
Description: Compounds of the invention were subjected to various representative biological tests. […] MCP-1 Receptor Binding Assay in THP-1 Cells Human monocytic cell line THP-1 cells were obtained from American Type Culture Collection (Manassas, Va., USA). The THP-1 cells were grown in RPMI-1640 (RPMI: Roswell Park Memorial Institute Medium-cell culture growth media) supplemented with 10% fetal bovine serum in a humidified 5% CO2 atmosphere at 37° C. The cell density was maintained between […].
THP-1 (cells were incubated with 0.5 nM ^125I labeled MCP-1 (Perkin-Elmer Life Sciences, Inc. Boston, Mass.) in the presence of varying concentrations of either unlabeled MCP-1 (R & D Systems, Minneapolis, Minn.) or test compound for 2 hours at 30° C. in a 96 well plate. Cells were then harvested onto a filter plate, dried, and 20 μL of Microscint 20 was added to each well. Plates were counted in a TopCount NXT, Microplate Scintillation & Luminescence Counter (Perkin-Elmer Life Sciences, Inc. Boston, Mass.). Blank values (buffer only) were subtracted from all values and drug treated values were compared to vehicle treated values. 1 μM cold MCP-1 was used for nonspecific binding.

CCR2, sequence (P41597 other isoform, or with tags, fused parts or gaps isoform P41597-2): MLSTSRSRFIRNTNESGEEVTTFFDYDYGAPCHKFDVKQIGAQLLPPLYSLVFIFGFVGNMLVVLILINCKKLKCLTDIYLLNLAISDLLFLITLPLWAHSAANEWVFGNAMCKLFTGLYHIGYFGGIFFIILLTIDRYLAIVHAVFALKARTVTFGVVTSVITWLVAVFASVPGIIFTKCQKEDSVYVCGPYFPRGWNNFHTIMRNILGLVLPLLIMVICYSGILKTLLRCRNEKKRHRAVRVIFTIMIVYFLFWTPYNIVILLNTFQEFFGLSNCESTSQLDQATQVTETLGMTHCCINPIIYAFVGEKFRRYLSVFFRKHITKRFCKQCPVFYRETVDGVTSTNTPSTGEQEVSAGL

| SMILES | IC50 [nM] |
| --- | --- |
| NC(=O)C(NC1CCC(c2c[nH]c3cccnc23)CC1)C1CCN(C(=O)Nc2ccc(Cl)c(Cl)c2)CC1 (stereo not drawn) [Example 42, 2-[trans-4-(1H-pyrrolo[3,2-b]pyridin-3-yl)cyclohexyl]amino-2-[N-(3,4-dichlorophenyl)piperidine-1-carboxamid-4-yl]-acetamide] | 87 |
| NC(=O)C(NC1CCC(c2c[nH]c3ccccc23)CC1)C1CCN(C(=O)Nc2cccc(F)c2)CC1 (stereo not shown) [Example 20, 2-[4-(1H-Indol-3-yl)-cyclohexylamino]-2-[N-(3-fluorophenyl)piperidine-1-carboxamid-4-yl]-acetamide] | 370 |
| Cc1cccc(NC(=O)N2CCC(C(NC3CCC(c4c[nH]c5cccnc45)CC3)C(N)=O)CC2)c1 (stereo not shown) [Example 48, 2-[4-(1H-pyrrolo[3,2-b]pyridin-3-yl)cyclohexyl]amino-2-[N-(3-tolyl)piperidine-1-carboxamid-4-yl]-acetamide] | 590 |
| NC(=O)C(NC1CCC(c2c[nH]c3ccccc23)CC1)C1CCN(C(=O)/C=C/c2ccc(OC(F)(F)F)cc2)CC1 (stereo not drawn) [Example 21, 2-[4-(1H-Indol-3-yl)-cyclohexylamino]-2-[1-(trans-4-(trifluoromethoxy)cinnamoyl)piperidin-4-yl]-acetamide] | 492 |
| NC(=O)C(N[C@H]1CC[C@H](C2CNc3ccccc32)CC1)C1CCN(C(=O)/C=C/c2cc(F)c(F)c(F)c2)CC1 (stereo partly drawn) [Example 52, 2-{[4-(2,3-dihydro-1H-indol-3-yl)-trans-cyclohexylamino]-2-[1-(trans-3,4,5-trifluorocinnamoyl)-piperidin-4-yl]}-acetamide] | 950 |
| NC(=O)C(NC1CCC(c2c[nH]c3ncccc23)CC1)C1CCN(C(=O)/C=C/c2cc(F)c(F)c(F)c2)CC1 (stereo not drawn) [Example 44, 2-[4-(1H-pyrrolo[2,3-b]pyridin-3-yl)cyclohexyl]amino-2-[1-(trans-3,4,5-trifluorocinnamoyl)-piperidin-4-yl]-acetamide] | 132 |
| NC(=O)C(NC1CCC(c2c[nH]c3ncccc23)CC1)C1CCN(C(=O)/C=C/c2cc(F)cc(F)c2)CC1 (stereo not drawn) [Example 46, R,S-2-[4-(1H-pyrrolo[2,3-b]pyridin-3-yl)cyclohexyl]amino-2-[1-(trans-3,5-difluorocinnamoyl)-piperidin-4-yl]-acetamide] | 330 |
| NC(=O)C(NC1CCC(c2c[nH]c3cccnc23)CC1)C1CCN(C(=O)/C=C/c2cc(F)cc(F)c2)CC1 (stereo not drawn) [Example 45, R,S-2-[trans-4-(1H-pyrrolo[3,2-b]pyridin-3-yl)cyclohexyl]amino-2-[1-(trans-3,5-difluorocinnamoyl)-piperidin-4-yl]-acetamide] | 130 |
| O=C(O)C(N[C@H]1CC[C@@H](c2c[nH]c3ccccc32)CC1)C1CCN(C(=O)Nc2ccc(Cl)c(Cl)c2)CC1 (stereo partly drawn) [Example 28, 2-[4-(1H-Indol-3-yl)-cis-cyclohexylamino]-2-[N-(3,4-dichlorophenyl)-piperidine-1-carboxamid-4-yl]-acetic acid hydrochloride] | 320 |
| COc1ccc(C2CCC(NC(C(N)=O)C3CCN(C(=O)/C=C/c4cc(F)c(F)c(F)c4)CC3)CC2)cn1 (stereo not drawn) [Example 50, 2-[4-(6-methoxypyridin-3-yl)cyclohexyl]amino-2-[1-(trans-3,4,5-trifluorocinnamoyl)-piperidin-4-yl]-acetamide] | 635 |
| NC(=O)C(NC1CCC(c2c[nH]c3ccccc23)CC1)C1CCN(C(=O)Nc2ccc(Cl)c(Cl)c2)CC1 (single isomer, unassigned) [Example 4b, 2-[4-(1H-Indol-3-yl)-cyclohexylamino]-2-[N-(3,4-dichlorophenyl)piperidine-1-carboxamid-4-yl]-acetamide] | 8 |
| NC(=O)C(NC1CCC(c2c[nH]c3cccnc23)CC1)C1CCN(C(=O)/C=C/c2cc(F)c(F)c(F)c2)CC1 (single isomer, unassigned) [Example 39a, 2-[4-(1H-pyrrolo[3,2-b]pyridin-3-yl)cyclohexyl]amino-2-[1-(trans-3,4,5-trifluorocinnamoyl)-piperidin-4-yl]-acetamide] | 25 |
| NC(=O)C(N[C@H]1CC[C@H](c2c[nH]c3ccncc32)CC1)C1CCN(C(=O)/C=C/c2cc(F)c(F)c(F)c2)CC1 (stereo partly drawn) [Example 41, R,S-2-[trans-4-(1H-pyrrolo[3,2-c]pyridin-3-yl)cyclohexyl]amino-2-[1-(trans-3,4,5-trifluorocinnamoyl)-piperidin-4-yl]-acetamide] | 83 |
| NC(=O)C(NC1CCC(c2c[nH]c3ccccc23)CC1)C1CCN(C(=O)Nc2ccc(Cl)c(Cl)c2)CC1 (single isomer, unassigned) [Example 4a, 2-[4-(1H-Indol-3-yl)-cyclohexylamino]-2-[N-(3,4-dichlorophenyl)piperidine-1-carboxamid-4-yl]-acetamide] | 470 |
| NC(=O)C(NC1CCC(c2c[nH]c3ccncc23)CC1)C1CCN(C(=O)Nc2ccc(Cl)c(Cl)c2)CC1 (stereo not shown) [Example 40, 2-[4-(1H-pyrrolo[3,2-c]pyridin-3-yl)cyclohexyl]amino-2-[N-(3,4-dichlorophenyl)piperidine-1-carboxamid-4-yl]-acetamide] | 40 |
| NC(=O)C(NC1CCC(c2c[nH]c3ccccc23)CC1)C1CCN(C(=O)Nc2cc(F)cc(F)c2)CC1 (stereo not shown) [Example 30, 2-[4-(1H-Indol-3-yl)-cyclohexylamino]-2-[N-(3,5-difluorophenyl)piperidine-1-carboxamid-4-yl]-acetamide] | 708 |
| CCOC(=O)c1cccc(NC(=O)N2CCC(C(NC3CCC(c4c[nH]c5ccccc45)CC3)C(N)=O)CC2)c1 (stereo not shown) [Example 19, 2-[4-(1H-Indol-3-yl)-cyclohexylamino]-2-[N-(3-{ethoxycarbonyl}-phenyl)piperidine-1-carboxamid-4-yl]-acetamide] | 58 |
| O=C(O)C(N[C@H]1CC[C@H](c2c[nH]c3ccccc32)CC1)C1CCN(C(=O)/C=C/c2cc(F)c(F)c(F)c2)CC1 (stereo partly drawn) [Example 26, 2-[4-(1H-Indol-3-yl)-cyclohexylamino]-2-[1-(trans-3,4,5-trifluorocinnamoyl)-piperidin-4-yl]-acetic acid hydrochloride] | 20 |
| NC(=O)C(NC1CCC(c2c[nH]c3ccccc23)CC1)C1CCN(C(=O)/C=C/c2ccc3c(c2)CCO3)CC1 (stereo not drawn) [Example 15, 2-[4-(1H-Indol-3-yl)-cyclohexylamino]-2-[1-(trans-3-(2,3-dihydrobenzofuran-5-yl)prop-2-enoyl)piperidin-4-yl]-acetamide] | 149 |
| COC(=O)C(NC1CCC(c2c[nH]c3ccccc23)CC1)C1CCN(C(=O)/C=C/c2cc(F)c(F)c(F)c2)CC1 (stereo not drawn) [Example 49a, Methyl 2-[4-(1H-indol-3-yl)-trans-cyclohexylamino]-2-[1-(trans-3,4,5-trifluorocinnamoyl)piperidin-4-yl]-acetate] | 410 |
| O=C(O)C(N[C@H]1CC[C@H](c2c[nH]c3ccccc32)CC1)C1CCN(C(=O)/C=C/c2cc(F)cc(F)c2)CC1 (stereo partly drawn) [Example 25, 2-[4-(1H-Indol-3-yl)-trans-cyclohexylamino]-2-[1-(trans-3,5-difluorocinnamoyl)-piperidin-4-yl]-acetic acid hydrochloride] | 220 |
| NC(=O)C(NC1CCC(c2c[nH]c3ccccc23)CC1)C1CCN(C(=O)/C=C/c2ccc(F)c(F)c2)CC1 (stereo not drawn) [Example 5, 2-[4-(1H-Indol-3-yl)-cyclohexylamino]-2-[1-(trans-3,4-difluorocinnamoyl)-piperidin-4-yl]-acetamide] | 21 |
| NC(=O)C(NC1CCC(c2c[nH]c3ccccc23)CC1)C1CCN(C(=O)Nc2ccc(F)cc2)CC1 (stereo not shown) [Example 29, 2-[4-(1H-Indol-3-yl)-cyclohexylamino]-2-[N-(4-fluorophenyl)piperidine-1-carboxamid-4-yl]-acetamide] | 669 |
| NC(=O)C(NC1CCC(c2c[nH]c3ccccc23)CC1)C1CCN(C(=O)Nc2ccc(OC(F)(F)F)cc2)CC1 (stereo not shown) [Example 11, 2-[4-(1H-Indol-3-yl)-cyclohexylamino]-2-[N-(4-{trifluoromethoxy}-phenyl)piperidine-1-carboxamid-4-yl]-acetamide] | 264 |
| NC(=O)C(NC1CCC(c2c[nH]c3cccnc23)CC1)C1CCN(C(=O)/C=C/c2cc(F)c(F)c(F)c2)CC1 (single isomer, unassigned) [Example 39b, 2-[4-(1H-pyrrolo[3,2-b]pyridin-3-yl)cyclohexyl]amino-2-[1-(trans-3,4,5-trifluorocinnamoyl)-piperidin-4-yl]-acetamide] | 600 |
| NC(=O)C(NC1CCC(c2c[nH]c3ccccc23)CC1)C1CCN(C(=O)/C=C/c2ccccc2F)CC1 (stereo not drawn) [Example 8, 2-[4-(1H-Indol-3-yl)-cyclohexylamino]-2-[1-(trans-2-fluorocinnamoyl)-piperidin-4-yl]-acetamide] | 270 |
| CNC(=O)C(NC1CCC(c2c[nH]c3ccccc23)CC1)C1CCN(C(=O)/C=C/c2cc(F)c(F)c(F)c2)CC1 (stereo not drawn) [Example 53, N-Methyl-2-{[4-(1H-Indol-3-yl)-cyclohexylamino]-2-[1-(trans-3,4,5-trifluorocinnamoyl)-piperidin-4-yl]}-acetamide] | 984 |
| NC(=O)C(NC1CCC(c2c[nH]c3ccccc23)CC1)C1CCN(C(=O)Nc2ccc(C(F)(F)F)cc2)CC1 (stereo not shown) [Example 9, 2-[4-(1H-Indol-3-yl)-cyclohexylamino]-2-[N-(4-{trifluoromethyl}-phenyl)piperidine-1-carboxamid-4-yl]-acetamide] | 130 |
